Tests used:
[1] = Fluorescence anisotropy, DPH apparent rotational correlation time (Example 8); conditions: POPC, 0 or 50 mol % cholesterol; increasing omega-3 fatty acid concentrations (FIGS. 16A-16B)
Excerpt: FIGS. 16A-16B show the dose-dependent effects of EPA and DHA on the ARCT measured for DPH in POPC membranes prepared at either 0 or 50 mol % cholesterol. †p=0.0331 versus cognate DHA treatment (5 mol % omega-3 fatty acids (O3FA), no cholesterol); ^§p=0.0016 versus cognate DHA treatment (5 mol % O3FA, 50 mol % cholesterol); ^‡p=0.0032 versus cognate DHA treatment (10 mol % O3FA, 50 mol % cholesterol) (unpaired, two-tailed Student's t-test). Values are mean±S.D. (N=3).
Fluorescence anisotropy experiments were conducted using large unilamellar vesicles (LUVs) of 100 nm diameter of either POPC (or POPC/cholesterol) containing increasing concentrations of EPA or DHA and 1 mol % DPH fluorescent. Briefly, 640 nmol of total lipid (phospholipid and sterol) and 6.4 nmol of fluorescent probe was mixed well and dried under a stream of nitrogen while being warmed gently at 35° C. […]
In order to ensure that the anisotropy values measured for DPH are not influenced by lifetime-induced artifacts, the apparent (average) rotational correlation times (ARCT) were calculated using Perrin's equation: […]
where r0 is the limiting anisotropy of DPH, r is the steady state anisotropy, and is the mean fluorescence lifetime.

[2] = tested on: unfractionated LDL; experiment: Copper-induced oxidation of unfractionated LDL, TBARS (Example 6); assay type: biochemical, human; conditions: 1.0 μM to 10.0 μM
Procedure: All test compounds were further diluted in ethanol or aqueous buffer as needed. Venous blood was collected from healthy volunteers into vacutainer tubes containing sodium EDTA. […] Plasma and lipoprotein fractions were maintained at 4° C. and protected from excessive exposure to light. Prior to oxidation experiments, EDTA was removed from the lipoprotein fraction using PD-10 desalting columns (GE Healthcare, Piscataway N.J.). After equilibration of the column with phosphate buffered saline (PBS), 2.5 mL of the lipoprotein fraction was loaded on the column and the flow-through discarded. The lipoprotein was then eluted with 3 mL of PBS. The LDL fractions were further diluted with PBS to obtain a 100 μg/mL apoB100 concentration. […] Sample TBARS concentrations were determined spectrophotometrically by measuring sample absorbances against a standard curve derived from the hydrolysis of 1,1,3,3-tetramethoxypropane. […] Differences between groups were analyzed using the two-tailed, Student's t-test (for comparisons between only two groups) or ANOVA followed by Dunnett or Student-Newman-Keuls multiple comparisons post-hoc analysis (for comparisons between three or more groups).

[3] = tested on: sdLDL; experiment: Copper-induced sdLDL oxidation (Example 7); assay type: biochemical, human; conditions: 10.0 μM; copper-induced oxidation 1 hour
Procedure: An experiment to study the antioxidant effect of EPA in small dense LDL (“sdLDL”) was performed. sdLDL was isolated from human plasma by isopycnic centrifugation, separated into test samples of 200 μg/mL, and incubated at 37° C. for 30 min in the absence (vehicle) or presence of EPA, fenofibrate, niacin, or gemfibrozil, each at 10.0 μM. All samples, with the exception of non-oxidized sdLDL controls, were subjected to copper-induced oxidation for 1 hour. Human umbilical vein endothelial cells (HUVECs) were incubated with the various sdLDL samples, stimulated with calcium, and monitored for nitric oxide (NO) and peroxynitrite (ONOO^−) release using nanosensor technology.

[4] = tested on: human sdLDL; experiment: Copper-induced sdLDL oxidation, TBARS (Example 6); assay type: biochemical; conditions: 1.0 μM to 10.0 μM; 2 hr copper oxidation
Procedure: An experiment to study the antioxidant effect of EPA in small dense LDL (“sdLDL”) was performed. EPA was purchased from Sigma-Aldrich (Saint Louis, Mo.) and solubilized in ethanol to 1 mM under nitrogen atmosphere. Vitamin E (α-tocopherol) was purchased from Sigma-Aldrich and prepared in ethanol at 1.0 mM (c=3.06×10^4 M^−1 cm^−1 at 294 nm) just prior to experimental use. All test compounds were further diluted in ethanol or aqueous buffer as needed.
Venous blood was collected from healthy volunteers into vacutainer tubes containing sodium EDTA. Plasma was separated by centrifugation at 3000 g for 25 min at 4° C. and adjusted to a density of 1.020 g/mL with KBr. […]
LDL and sdLDL subfractions (0.6 mL each) were incubated with either 10 μL vehicle (ethanol) or 10 μL drug stock solution for 30 min to 1 hr at 37° C. […] Sample TBARS concentrations were determined spectrophotometrically by measuring sample absorbances against a standard curve derived from the hydrolysis of 1,1,3,3-tetramethoxypropane.
Data are presented as mean±S.D. for (N) separate samples or treatment groups. Differences between groups were analyzed using the two-tailed, Student's t-test (for comparisons between only two groups) or ANOVA followed by Dunnett or Student-Newman-Keuls multiple comparisons post-hoc analysis (for comparisons between three or more groups). […]

SMILES	DPH apparent rotational correlation time / membrane fluidity [1]	LDL oxidation [2]	reduction of sdLDL oxidation compared to vehicle treatment [3] [%]	sdLDL oxidation [4]
CC/C=C\C/C=C\C/C=C\C/C=C\C/C=C\CCCC(=O)O [EPA, cis-5,8,11,14,17-Eicosapentaenoic acid]	did not alter membrane fluidity	generally inhibit LDL oxidation	> 90	inhibited sdLDL oxidation over a broad range of concentrations
Cc1c(C)c2c(c(C)c1O)CC[C@@](C)(CCC[C@H](C)CCC[C@H](C)CCCC(C)C)O2 [vitamin E, α-tocopherol, reference compound]		did not inhibit LDL oxidation at any concentration		did not inhibit sdLDL oxidation except at the highest concentration

Reference: patent US20180028480A1, “METHODS OF REDUCING OR PREVENTING OXIDATIVE MODIFICATION OF MEMBRANE POLYUNSATURATED FATTY ACIDS” (Amarin Pharmaceuticals Ireland Limited, priority 2015, published 2018)
